Where two headings read alike, the source gives them in different places.

The test has as its target T1, Akt1 (Homo sapiens, UniProt P31749, S473D).
T1 construct: The version of Akt used in these studies lacks the pleckstrin homology (PH) domain
Put plainly: Akt1 kinase assay, fluorescence polarization (IMAP). The test is classed as biochemical. The essentials: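 His-tagged Akt1 lacking the PH domain, Thr308-prephosphorylated, 1.5 ng per reaction, with 4 μM ATP and 40 nM TAMRA-Crosstide (solution concentrations) in Tris pH 7.5/MgCl2/DTT buffer. Incubated 30 min at ambient temperature; IMAP fluorescence polarization read (544/615 nm). IC50 after subtraction of no-enzyme background.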
In general terms: In fluorescence polarisation assays a small probe gives low polarisation when free and higher when bound to something large.

Setting [1] is: Table 1, concentration bins, read-out: Concentration Range at which exemplary compounds of formula I inhibit Akt kinase activity.
The mark [2] stands for this setting: average Akt kinase activity (IC50), read-out: Avg Akt kinase, μM (50% inhibition).
Where [3] appears, read: Table 3, read-out: Avg Akt kinase, μM (50% inhibition).
Setting [4] is: read-out: Avg Akt kinase, μM (50% inhibition).

T1 sequence (P31749 118-480 S473D limits assumed, species assumed): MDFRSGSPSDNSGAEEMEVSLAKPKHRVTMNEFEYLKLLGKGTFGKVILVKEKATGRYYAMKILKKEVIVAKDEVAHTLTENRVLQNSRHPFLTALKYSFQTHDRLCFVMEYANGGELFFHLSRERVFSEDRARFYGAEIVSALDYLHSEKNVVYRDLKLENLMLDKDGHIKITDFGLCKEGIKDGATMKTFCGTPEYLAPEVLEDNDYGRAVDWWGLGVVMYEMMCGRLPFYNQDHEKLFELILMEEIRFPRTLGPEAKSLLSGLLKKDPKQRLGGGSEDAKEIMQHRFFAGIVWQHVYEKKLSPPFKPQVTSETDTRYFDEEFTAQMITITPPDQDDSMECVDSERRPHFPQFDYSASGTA

For the compound `CCCc1c[nH]c2ncnc(N3CC[C@@](N)(CNC(=O)c4cc(C)on4)C3)c12` [Example 95, N-{[(3R)-3-amino-1-(5-propyl-7H-pyrrolo[2,3-d]pyrimidin-4-yl)pyrrolidin-3-yl]methyl}-5-methylisoxazole-3-carboxamide], the IC50 under setting [1] was in the range of 0.00251 to 0.01 µM and the IC50 under setting [2] amounted to 0.00433 µM.

With `COc1cc(NCC2(N)CCN(c3ncnc4[nH]cc(C)c34)C2)cc(C(F)(F)F)c1` (stereo not drawn) [Example 30, 3-({[3-methoxy-5-(trifluoromethyl)phenyl]amino}-methyl)-1-(5-methyl-7H-pyrrolo[2,3-d]pyrimidin-4-yl)pyrrolidin-3-amine], the IC50 was 0.0101 to 0.1 µM under setting [1] and 0.0135 µM under setting [3].

Regarding `Cc1cccc(F)c1C(=O)NC[C@@]1(N)CCN(c2ncnc3[nH]cc(Cl)c23)C1` [Example 122], the IC50 is 0.0101 to 0.1 µM under setting [1] and 0.029 µM under setting [2].

For the compound `Cc1cc(CNC[C@@]2(N)CCN(c3ncnc4[nH]cc(C)c34)C2)no1` [Example 53, (3S)-3-({[(5-methylisoxazol-3-yl)methyl]amino}methyl)-1-(5-methyl-7H-pyrrolo[2,3-d]pyrimidin-4-yl)pyrrolidin-3-amine], the IC50 reads like this: under setting [1], 0.0101 to 0.1 µM; under setting [3], 0.0293 µM.

Turning to `Cc1c[nH]c2ncnc(N3CC[C@](N)(CNc4cccc(C(F)(F)F)c4)C3)c12` [Example 13, (3S)-1-(5-methyl-7H-pyrrolo[2,3-d]pyrimidin-4-yl)-3-({[3-(trifluoromethyl)phenyl]amino}-methyl)pyrrolidin-3-amine], the IC50 is, setting by setting: under setting [1], 0.00025 to 0.0025 µM; under setting [3], 0.00226 µM.

For the compound `Cc1c[nH]c2ncnc(N3CCC(N)(CNCC4CC4)C3)c12` (stereo not drawn) [Example 54, 3-{[(cyclopropylmethyl)amino]methyl}-1-(5-methyl-7H-pyrrolo[2,3-d]pyrimidin-4-yl)pyrrolidin-3-amine], the IC50 is 0.101 to 10 µM under setting [1] and 0.739 µM under setting [3].

As for `N#Cc1c[nH]c2ncnc(N3CC[C@](N)(CNC(=O)c4cccc(F)c4F)C3)c12` [Example 90], the IC50 is, setting by setting: under setting [1], 0.0101 to 0.1 µM; under setting [2], 0.0395 µM.

Regarding `Cc1c[nH]c2ncnc(N3CC[C@](N)(CNC(=O)c4c(F)cccc4F)C3)c12` [Example 126, N-{[(3S)-3-amino-1-(5-methyl-7H-pyrrolo[2,3-d]pyrimidin-4-yl)pyrrolidin-3-yl]methyl}-2,6-difluorobenzamide], the IC50 under setting [1] was 0.0101 to 0.1 µM and the IC50 under setting [2] amounted to 0.0199 µM.

For the compound `N[C@]1(CNC(=O)c2ccccc2F)CCN(c2ncnc3[nH]cc(Cl)c23)C1` [Example 80, N-{[(3S)-3-amino-1-(5-chloro-7H-pyrrolo[2,3-d]pyrimidin-4-yl)pyrrolidin-3-yl]methyl}-2-fluorobenzamide], the IC50 reads like this: under setting [1], 0.00251 to 0.01 µM; under setting [2], 0.00424 µM.

Turning to `Cc1c[nH]c2ncnc(N3CCC(N)(CN(C)C(=O)c4ccc(Cl)cc4)C3)c12` (stereo not drawn) [Example 196, N-((3-amino-1-(5-methyl-7H-pyrrolo[2,3-d]pyrimidin-4-yl)pyrrolidin-3-yl)methyl)-4-chloro-N-methylbenzamide], the IC50 is, setting by setting: under setting [1], 0.101 to 10 µM; under setting [4], 0.123 µM.

`CCc1c[nH]c2ncnc(N3CC[C@](N)(CNC(=O)c4ccc(Cl)cc4)C3)c12` [Example 88]: the IC50 by setting is: under setting [1], 0.00025 to 0.0025 µM; under setting [2], 0.0018 µM.

Consider `Cc1c[nH]c2ncnc(N3CC[C@](N)(CNC(=O)c4cc(F)ccc4F)C3)c12` [Example 101, N-{[(3S)-3-amino-1-(5-methyl-7H-pyrrolo[2,3-d]pyrimidin-4-yl)pyrrolidin-3-yl]methyl}-2,5-difluorobenzamide], for which the IC50 under setting [1] lay within 0.0101 to 0.1 µM and the IC50 under setting [2] came out at 0.015 µM.

Regarding `Cc1c[nH]c2ncnc(N3CCC(N)(CN(C)C(=O)c4ccccc4F)C3)c12` (stereo not drawn) [Example 197, N-((3-amino-1-(5-methyl-7H-pyrrolo[2,3-d]pyrimidin-4-yl)pyrrolidin-3-yl)methyl)-2-fluoro-N-methylbenzamide], the IC50 is, setting by setting: under setting [1], 0.101 to 10 µM; under setting [4], 0.148 µM.

Regarding `CCc1c[nH]c2ncnc(N3CCC(N)(CNc4cccc(C(F)(F)F)c4)C3)c12` (stereo not drawn) [Example 9], the IC50 was 0.00025 to 0.0025 µM under setting [1] and 0.002 µM under setting [3].

On to `N[C@]1(CNC(=O)c2ccc(F)c(F)c2)CCN(c2ncnc3[nH]cc(Cl)c23)C1` [Example 129, N-{[(3S)-3-amino-1-(5-chloro-7H-pyrrolo[2,3-d]pyrimidin-4-yl)pyrrolidin-3-yl]methyl}-3,4-difluorobenzamide], for which the IC50 under setting [1] is 0.00251 to 0.01 µM and the IC50 under setting [2] was 0.00334 µM.

For the compound `N#Cc1c[nH]c2ncnc(N3CCC(N)(CNc4ccc5c(c4)CNCC5)C3)c12` (stereo not drawn) [Example 39, 4-{3-amino-3-[(1,2,3,4-tetrahydroisoquinolin-7-ylamino)methyl]pyrrolidin-1-yl}-7H-pyrrolo[2,3-d]pyrimidine-5-carbonitrile], the IC50 was 0.101 to 10 µM under setting [1] and 4.1 µM under setting [3].

Take `Cc1c[nH]c2ncnc(N3CCC(N)(CN4CCc5ccccc54)C3)c12` (stereo not drawn) [Example 51, 3-(2,3-dihydro-1H-indol-1-ylmethyl)-1-(5-methyl-7H-pyrrolo[2,3-d]pyrimidin-4-yl)pyrrolidin-3-amine]: the IC50 was 0.0101 to 0.1 µM under setting [1] and 0.0362 µM under setting [3].

Turning to `Cc1c[nH]c2ncnc(N3CCC(N)(CNCCN(C)C)C3)c12` (stereo not drawn) [Example 46, N′-{[3-amino-1-(5-methyl-7H-pyrrolo[2,3-d]pyrimidin-4-yl)pyrrolidin-3-yl]methyl}-N,N-dimethylethane-1,2-diamine], the IC50 is, setting by setting: under setting [1], 0.101 to 10 µM; under setting [3], 0.125 µM.

For the compound `CCc1c[nH]c2ncnc(N3CC[C@](N)(CNC(=O)c4cccc(F)c4)C3)c12` [Example 105, N-{[(3S)-3-amino-1-(5-ethyl-7H-pyrrolo[2,3-d]pyrimidin-4-yl)pyrrolidin-3-yl]methyl}-3-fluorobenzamide], the IC50 reads like this: under setting [1], 0.0101 to 0.1 µM; under setting [2], 0.0107 µM.

As for `Cc1c[nH]c2ncnc(N3CCC(N)(CNc4cccc(-c5cnco5)c4)C3)c12` (stereo not drawn) [Example 44, 1-(5-methyl-7H-pyrrolo[2,3-d]pyrimidin-4-yl)-3-({[3-(1,3-oxazol-5-yl)phenyl]amino}methyl)pyrrolidin-3-amine], the IC50 by setting is: under setting [1], 0.101 to 10 µM; under setting [3], 0.837 µM.

Consider `CCc1c[nH]c2ncnc(N3CCC(N)(COc4cccc(C)c4)C3)c12` (stereo not drawn) [Example 65, 1-(5-ethyl-7H-pyrrolo[2,3-d]pyrimidin-4-yl)-3-[(3-methylphenoxy)methyl]pyrrolidin-3-amine], for which the IC50 under setting [1] fell in the range of 0.0101 to 0.1 µM and the IC50 (Table 4, read-out: Avg Akt kinase, μM (50% inhibition)) was 0.0948 µM.

Take `Cc1c[nH]c2ncnc(N3CC[C@](N)(CNC(=O)c4c(F)ccc(F)c4F)C3)c12` [Example 120, N-{[(3S)-3-amino-1-(5-methyl-7H-pyrrolo[2,3-d]pyrimidin-4-yl)pyrrolidin-3-yl]methyl}-2,3,6-trifluorobenzamide]: the IC50 is 0.0101 to 0.1 µM under setting [1] and 0.0255 µM under setting [2].

For `CCc1c[nH]c2ncnc(N3CC[C@](N)(CNC(=O)c4ccccc4)C3)c12` [Example 110, N-{[(3S)-3-amino-1-(5-ethyl-7H-pyrrolo[2,3-d]pyrimidin-4-yl)pyrrolidin-3-yl]methyl}benzamide], the IC50 under setting [1] is 0.00251 to 0.01 µM and the IC50 under setting [2] was 0.0073 µM.

As for `Cc1c[nH]c2ncnc(N3CCC(N)(CNc4ccc(CC(N)=O)cc4)C3)c12` (stereo not drawn) [Example 16, 2-[4-({[3-amino-1-(5-methyl-7H-pyrrolo[2,3-d]pyrimidin-4-yl)pyrrolidin-3-yl]methyl}amino)phenyl]-acetamide], the IC50 is, setting by setting: under setting [1], 0.0101 to 0.1 µM; under setting [3], 0.0143 µM.

The values are drawn from patent publication US20080051419A1, “AMINE DERIVATIVES USEFUL AS ANTICANCER AGENTS” (PFIZER INC., priority 2006, published 2008).
